# Patent US5981592A, “Method and composition for treating cystic fibrosis” (priority 1998, dated 1999)
# What was measured:
# [1] = test system: epithelial cells of the distal colon (crypts); assay: Labelling Index (LI) of proliferating crypt cells in distal colon, BrD-U staining; assay type: in vivo, Female Sprague-Dewley rats; conditions: rats, 30 days; for LI (Labelling Index): 6.3 mg/Kg/day, distal colon, control 12.62, P<0.05
# Description: The term "effective to elicit a chemoprotective effect" was used herein means that abnormal cell proliferation is reduced. A method of measuring cell proliferation in animals is the Labelling Index (LI). Epithelial cells of the distal colon are stained using a histologic biomarker of proliferating cells. Microscopic examination allows for quantification of the proportion of proliferating cells in the crypts. A high proportion of proliferating cells or LI, particularly in the upper portion of the crypts, is an indicator of abnormal cell proliferation. A reduction in the LI of at least 10 to 50%, preferably at least 30% is associated with the reduction of abnormal cell proliferation. Of course, the particular R-NSAID used must be enantiomerically stable in the animal species being tested.
# (§1) A study was performed to compare the R- and S-isomers of flurbiprofen with regard to their effect on the Labelling Index (LI) and duodenal ulceration in contrast to the S-isomer.
# (§2) Female Sprague-Dewley rats were randomized to 4 groups (N=10) receiving 6.3 mg/Kg/day R-flurbiprofen; 6.3 mg/Kg/day S-flurbiprofen; 12.5 mg/Kg/day racemic flurbiprofen; or vehicle control. Fasted rats were sacrificed after 30 days. Small bowel ulcer score was recorded in each group.
# The LI is calculated using a histologic biomarker of proliferating cells, a monoclonal antibody to Bromo-deoxyuridine (BrD-U). Intestinal crypts are examined microscopically in longitudinal sections such that proliferating cells are identified and quantified as a proportion of total crypt cells. An LI was determined for each rat using BrD-U staining to identify the proportion of mitotic cells in the crypt of Leiberkuhn. Twelve well-oriented crypts (distal colon) were examined in each rat.
# [2] = test system: white cell count in the blood; conditions: in vivo; cited from earlier work
# [3] = test system: neutrophils; conditions: high doses; stated as believed; cited from earlier work
# [4] = test system: cystic fibrosis lung disease; conditions: cited from earlier work
# [5] = test system: colon cancer; conditions: cited from earlier work; for survival among colon cancer patients: 5-fluorouracil alone or with levamisole
# [6] = test system: small bowel; design: species or system Female Sprague-Dewley rats; conditions: rat, in vivo
# Method: The term "with reduced gastrointestinal toxicity" as used herein means that the administration of the particular R-NSAID is less ulcerogenic to the gastrointestinal tract of the human or other mammal than the corresponding racemate or S-NSAID. One measure of ulcerogenic activity is the small bowel ulcer score. A rat is treated daily through oral administration of the R-NSAID for 30 days. At the end of the 30 days, the rat is sacrificed and the intestines removed. Lesions of appreciable size in the mucosa are measured. A cumulative score equaling the sum of the diameters of the ulcers measured are reported as the ulcer score. An ulcer score essentially equal to that of a control rat, or a reduction of the ulcer score of at least 50 to 90%, preferably at least 80%, as compared to the corresponding S-NSAID or racemate, is considered a reduction in gastrointestinal toxicity.
# as §1, §2
# [7] = test system: neutrophil traffic; assay: effect on neutrophil traffic in the normal rat; assay type: in vivo; conditions: for neutrophil adhesiveness and extravasation: post-capillary venules and surrounding tissue
# [8] = test system: colon cancer; conditions: cited from earlier work; for prevention of cancer of the large bowel and rectum: causal relationship with use identified by the reference
# [9] = test system: gastric mucosa; conditions: in vivo; cited from earlier work
structure (smiles),measurement,setting,value
CC(C(=O)O)c1ccc(-c2ccccc2)c(F)c1 (racemic) [racemic flurbiprofen],"LI, result in words","[1]; equal-molar doses of both enantiomers (racemic 12.5 mg/Kg/day), relative to R- and S-flurbiprofen groups",further reduced
CC(C)Cc1ccc(C(C)C(=O)O)cc1 (racemic) [racemic ibuprofen],leukopenia/agranulocytosis syndrome,[2],leukopenia/agranulocytosis syndrome has been described
same,influx of neutrophils to the alveolar crevices,[3],inhibits the influx of neutrophils to the alveolar crevices
same,progression of the lung disease,"[4]; high doses, four-year period, cystic fibrosis patients",slows progression of the lung disease
same,side effects at high doses,"[4]; human, in vivo",conjunctivitis and epistaxis
O=c1[nH]cc(F)c(=O)[nH]1 [5-fluorouracil],survival among colon cancer patients,[5],No improvement in survival
C[C@@H](C(=O)O)c1ccc(-c2ccccc2)c(F)c1 [R-flurbiprofen],"ulcerogenicity, in words",[6],much less ulcerogenic than its S-enantiomer
same,"cell proliferation in the distal colon, in words",[1],suppresses cell proliferation in the distal colon
same,LI (Labelling Index),[1],8.71
same,effect on neutrophil traffic relative to the S-enantiomer,[7],as effective as the S-enantiomer
same,neutrophil adhesiveness and extravasation,[7],produce neutrophil adhesiveness in the post-capillary venules and extravasation of neutrophils into the surrounding tissue
CC(C)Cc1ccc([C@H](C)C(=O)O)cc1 [S(+) ibuprofen],gastrointestinal side effects,"[4]; human, in vivo",severely limit the chronic use of this therapy
C[C@H](C(=O)O)c1ccc(-c2ccccc2)c(F)c1 [S-flurbiprofen],LI (Labelling Index),[1],9.09
same,neutrophil adhesiveness and extravasation,[7],produce neutrophil adhesiveness in the post-capillary venules and extravasation of neutrophils into the surrounding tissue
CC(=O)Oc1ccccc1C(=O)O [aspirin],protection against colon cancer,[8]; epidemiologic survey,confer protection against colon cancer
same,damage and irritation of the gastric mucosa,[9],cause damage and irritation of the gastric mucosa
COc1ccc2c(c1)c(CC(=O)O)c(C)n2C(=O)c1ccc(Cl)cc1 [indomethacin],leukopenia/agranulocytosis syndrome,[2],leukopenia/agranulocytosis syndrome has been described
same,prevention of cancer of the large bowel and rectum,[8],prevention of cancer of the large bowel and rectum
same,damage and irritation of the gastric mucosa,[9],cause damage and irritation of the gastric mucosa
CC(C(=O)O)c1cccc(C(=O)c2ccccc2)c1 (stereo not drawn) [ketoprofen],leukopenia/agranulocytosis syndrome,[2],leukopenia/agranulocytosis syndrome has been described
c1ccc([C@H]2CN3CCSC3=N2)cc1 [levamisole],survival among colon cancer patients,[5],improved survival rate
same,T-cell count / immune system,"[5]; human, in vivo",stimulate the immune system and increase T-cell count
CN1C(C(=O)Nc2ccccn2)=C(O)c2ccccc2S1(=O)=O [peroxicam],prevention of cancer of the large bowel and rectum,[8],prevention of cancer of the large bowel and rectum
CC1=C(CC(=O)O)c2cc(F)ccc2/C1=C\c1ccc([S+](C)[O-])cc1 (stereo not drawn) [sulindac],prevention of cancer of the large bowel and rectum,[8],prevention of cancer of the large bowel and rectum
